Laboratory results: patent US5026724A, “Compounds with bronchodilator activity” (Akzo N.V., priority 1988, dated 1991)
Counter-ions that a name gives are not always drawn.

Test system: Isolated, single ring preparations of guinea-pig trachea
Assay: relaxant effect after tone contracture induced by histamine in isolated guinea-pig trachea rings
Format: cell-based
Settings: Cavia porcellus, contracture by histamine (40 μM), flurbiprofen (1 μM) present, 37° C., cumulative concentration-effect curves
Description: Compounds of formula I show strong bronchodilator activity, which for instance can be measured by the relaxant effect of the compounds after tone contracture by histamine, which is determined as follows. Isolated, single ring preparations of guinea-pig trachea were suspended in tissue baths containing KrebsHenseleit solution, at 37° C., bubbled with a gaseous mixture of 5% CO2 and 95% 02 Tissues were allowed to equilibrate for 60 min. after which flurbiprofen (1 μM), a cyclo-oxygenase inhibitor, was added to the tissue bath and a further 60 min. equilibration allowed to elapse. The flurbiprofen remained in contact with the tissue for the duration of the experiment in order to eliminate the complications that arise in guinea-pig airway preparations due to the spontaneous and agonist-induced generation of cyclo-oxygenase products (for example PGE2 and PGF2α) No other drugs (e.g. atropine or β-adrenoceptor antagonists) were present during the experimental protocol. […] Thus, tone (contracture) was induced by addition of an equi-effective (EC50) concentration of histamine (40 μM). The relaxant effects of each compound were tested by constructing cumulative concentration-effect curves. In each experiment, three preparations were contracted with histamine. After completion of the relaxant concentration-effect curves the compound under test was thoroughly washed out from the preparations which were then left to recover to control levels of resting tension (approx. 60 min.). Results of this test for the compounds of formula I are denoted in the table.

SMILES	EC50 [µM]
COc1cc2sc(C(=N)NO)cc2c(Cl)c1O [Cl OH H NH2 S HCl, 4-chloro-5,N-dihydroxy-6-methoxy-benzo[b]thiophene-2-carboximidamide hydrochloride]	10
COc1cc2sc(C(=N)NO)cc2c(Br)c1OC [Br OCH3 H NH2 S CH3 SO3 H, 4-bromo-N-hydroxy-5,6-dimethoxy-benzo[b]thiophene-2-carboximidamide methanesulphonate]	1
COc1cc(OC)c2cc(C(=N)NO)oc2c1 [OCH3 H H NH2 O HCl, N-hydroxy-4,6-dimethoxy-benzo[b]furan-2-carboximidamide]	5
COc1cc2cc(C(=N)NO)sc2cc1OC [H OCH3 H NH2 S none, N-hydroxy-5,6-dimethoxy-benzo[b]thiophene-2-carboximidamide]	8
COc1cc2cc(/C=N\O)sc2cc1OC [H OCH3 H H(Z-isomer) S none, (Z)-5,6-dimethoxy-benzo[b]thiophene-2-carboxaldehyde oxime]	5
COc1cc2cc(/C=N/O)sc2cc1OC [H OCH3 H H(E-isomer) S none, (E)-5,6-dimethoxy-benzo[b]thiophene-2-carboxaldehyde oxime]	2
COc1cc2cc(/C(C)=N/O)sc2cc1OC [H OCH3 H CH3 (E-isomer) S none, (E)-1-(5,6-dimethoxy-benzo[b]thien-2-yl)-ethanone oxime]	0.1
COc1cc2sc(C(=N)NO)cc2cc1OC(F)F [H OCHF2 H NH2 S HCl, 5-difluoromethyloxy-N-hydroxy-6-methoxy-benzo[b]thiophene-2-carboximidamide hydrochloride]	5
COc1c(OC)c(Cl)c2sc(C(=N)NO)cc2c1Cl [Cl OCH3 Cl NH2 S HCl, 4,7-dichloro-N-hydroxy-5,6-dimethoxy-benzo[b]thiophene-2-carboximidamide hydrochloride]	8
COc1cc2sc(C(=N)NO)cc2c(F)c1OC [F OCH3 H NH2 S CH3 SO3 H, 4-fluoro-N-hydroxy-5,6-dimethoxy-benzo[b]thiophene-2-carboximidamide]	2.5
COc1cc2sc(C=NO)cc2c(Cl)c1OC (mixture of isomers) [Cl OCH3 H H(Z/E mixture) S none, 4-chloro-5,6-dimethoxy-benzo[b]thiophene-2-carboxaldehyde oxime]	5
COc1cc2c(cc1OC)CCC(C(=N)NO)=C2 [H OCH3 H NH2 (CH2)2 HCl, 1,2-dihydro-N-hydroxy-6,7-dimethoxy-naphthalene-3-carboximidamide]	3
